Results published in the NIST ThermoML archive (doi:10.1016/j.jct.2015.12.017).
Several values for one entry are separate records, joined by “and”; a condition that tells them apart may be missing. Identical values can stand only once.

Experiment: molar heat capacity at constant pressure
Details: 101.33 kPa, Small sample (50 mg) DSC

O=P([O-])([O-])[O-].[Co+2].[Cs+] [cesium cobalt(II) phosphate]
Details | molar heat capacity at constant pressure
451.9 K, Crystal 3 | 167.95 J/K/mol
454.4 K, Crystal 3 | 167.95 J/K/mol
456.9 K, Crystal 3 | 168.78 J/K/mol
459.4 K, Crystal 3 | 169.62 J/K/mol
460 K, Crystal 3 | 169.45 J/K/mol
461.9 K, Crystal 3 | 170.45 J/K/mol
464.4 K, Crystal 3 | 170.45 J/K/mol
466.9 K, Crystal 3 | 171.28 J/K/mol
469.4 K, Crystal 3 | 172.11 J/K/mol
470 K, Crystal 3 | 172.44 J/K/mol
471.9 K, Crystal 3 | 172.94 J/K/mol
474.4 K, Crystal 3 | 173.77 J/K/mol
476.9 K, Crystal 3 | 174.6 J/K/mol
479.4 K, Crystal 3 | 176.27 J/K/mol
480 K, Crystal 3 | 175.02 J/K/mol
481.9 K, Crystal 3 | 182.92 J/K/mol
484.4 K, Crystal 3 | 205.37 J/K/mol
486.9 K, Crystal 2 | 241.12 J/K/mol and 177.1 J/K/mol
486.9 K, Crystal 3 | 177.1 J/K/mol and 241.12 J/K/mol
489.8 K, Crystal 2 | 196.22 J/K/mol
490 K, Crystal 2 | 176.68 J/K/mol
491.9 K, Crystal 2 | 182.09 J/K/mol
494.4 K, Crystal 2 | 177.93 J/K/mol
496.9 K, Crystal 2 | 177.1 J/K/mol
499.4 K, Crystal 2 | 177.93 J/K/mol
500 K, Crystal 2 | 177.51 J/K/mol
501.9 K, Crystal 2 | 178.76 J/K/mol
504.4 K, Crystal 2 | 181.26 J/K/mol
506.9 K, Crystal 2 | 185.41 J/K/mol
509.4 K, Crystal 2 | 192.06 J/K/mol
510 K, Crystal 2 | 177.51 J/K/mol
511.6 K, Crystal 2 | 215.34 J/K/mol
514.4 K, Crystal 1 | 253.59 J/K/mol and 177.02 J/K/mol
514.4 K, Crystal 2 | 253.59 J/K/mol and 177.76 J/K/mol
517.3 K, Crystal 1 | 198.72 J/K/mol
518.6 K, Crystal 1 | 188.74 J/K/mol
520 K, Crystal 1 | 177.02 J/K/mol
520.2 K, Crystal 1 | 184.58 J/K/mol
523.1 K, Crystal 1 | 181.26 J/K/mol
526.9 K, Crystal 1 | 178.76 J/K/mol
529.4 K, Crystal 1 | 177.93 J/K/mol
530 K, Crystal 1 | 177.02 J/K/mol
531.9 K, Crystal 1 | 177.1 J/K/mol
534.4 K, Crystal 1 | 177.1 J/K/mol
536.9 K, Crystal 1 | 177.1 J/K/mol
539.4 K, Crystal 1 | 177.1 J/K/mol
540 K, Crystal 1 | 177.02 J/K/mol
541.9 K, Crystal 1 | 177.1 J/K/mol
544.4 K, Crystal 1 | 177.1 J/K/mol
546.9 K, Crystal 1 | 177.1 J/K/mol
549.4 K, Crystal 1 | 177.1 J/K/mol
550 K, Crystal 1 | 177.02 J/K/mol
551.9 K, Crystal 1 | 177.1 J/K/mol
554.4 K, Crystal 1 | 177.1 J/K/mol
556.9 K, Crystal 1 | 177.1 J/K/mol
559.4 K, Crystal 1 | 177.1 J/K/mol
560 K, Crystal 1 | 177.02 J/K/mol
561.9 K, Crystal 1 | 177.1 J/K/mol
564.4 K, Crystal 1 | 177.1 J/K/mol
566.9 K, Crystal 1 | 177.1 J/K/mol
569.4 K, Crystal 1 | 177.1 J/K/mol
570 K, Crystal 1 | 177.02 J/K/mol
571.9 K, Crystal 1 | 177.1 J/K/mol
574.4 K, Crystal 1 | 177.1 J/K/mol
576.9 K, Crystal 1 | 177.1 J/K/mol
579.4 K, Crystal 1 | 177.1 J/K/mol
580 K, Crystal 1 | 177.02 J/K/mol
581.9 K, Crystal 1 | 177.1 J/K/mol
584.4 K, Crystal 1 | 177.1 J/K/mol
586.9 K, Crystal 1 | 177.1 J/K/mol
589.4 K, Crystal 1 | 177.1 J/K/mol
590 K, Crystal 1 | 177.02 J/K/mol
591.9 K, Crystal 1 | 177.1 J/K/mol
594.4 K, Crystal 1 | 177.1 J/K/mol
596.9 K, Crystal 1 | 177.1 J/K/mol
599.4 K, Crystal 1 | 177.1 J/K/mol
600 K, Crystal 1 | 177.02 J/K/mol
601.9 K, Crystal 1 | 177.1 J/K/mol
604.4 K, Crystal 1 | 177.1 J/K/mol
606.9 K, Crystal 1 | 177.1 J/K/mol
609.4 K, Crystal 1 | 177.1 J/K/mol
610 K, Crystal 1 | 177.02 J/K/mol
611.9 K, Crystal 1 | 177.93 J/K/mol
614.4 K, Crystal 1 | 177.93 J/K/mol
616.9 K, Crystal 1 | 177.93 J/K/mol
619.4 K, Crystal 1 | 177.93 J/K/mol
620 K, Crystal 1 | 177.02 J/K/mol
621.9 K, Crystal 1 | 177.93 J/K/mol
624.4 K, Crystal 1 | 177.93 J/K/mol
626.9 K, Crystal 1 | 177.93 J/K/mol
629.4 K, Crystal 1 | 177.93 J/K/mol
630 K, Crystal 1 | 177.02 J/K/mol
631.9 K, Crystal 1 | 177.93 J/K/mol
634.4 K, Crystal 1 | 177.93 J/K/mol
636.9 K, Crystal 1 | 177.93 J/K/mol
639.4 K, Crystal 1 | 177.93 J/K/mol
640 K, Crystal 1 | 177.02 J/K/mol
641.9 K, Crystal 1 | 177.93 J/K/mol
644.4 K, Crystal 1 | 177.93 J/K/mol
646.9 K, Crystal 1 | 177.93 J/K/mol
649.4 K, Crystal 1 | 177.93 J/K/mol
650 K, Crystal 1 | 177.02 J/K/mol
